Measurements: ChEMBL document CHEMBL3860101, “Targeting the Nerve Growth Factor (NGF) Pathway in Drug Discovery. Potential Applications to New Therapies for Chronic Pain” (J Med Chem, 2017)

How the values were obtained:
Beta-nerve growth factor = Beta-nerve growth factor (Mus musculus, UniProt P01139); test: Inhibition of mouse NGF binding to TrkA (unknown origin) by SPR method; design: species or system Homo sapiens
[1] = target: T1, Tumor necrosis factor receptor superfamily member 16 (Homo sapiens) (UniProt P08138); test: Inhibition of mouse NGF binding to p75 (unknown origin) by SPR method relative to control
T1 sequence (whole entry): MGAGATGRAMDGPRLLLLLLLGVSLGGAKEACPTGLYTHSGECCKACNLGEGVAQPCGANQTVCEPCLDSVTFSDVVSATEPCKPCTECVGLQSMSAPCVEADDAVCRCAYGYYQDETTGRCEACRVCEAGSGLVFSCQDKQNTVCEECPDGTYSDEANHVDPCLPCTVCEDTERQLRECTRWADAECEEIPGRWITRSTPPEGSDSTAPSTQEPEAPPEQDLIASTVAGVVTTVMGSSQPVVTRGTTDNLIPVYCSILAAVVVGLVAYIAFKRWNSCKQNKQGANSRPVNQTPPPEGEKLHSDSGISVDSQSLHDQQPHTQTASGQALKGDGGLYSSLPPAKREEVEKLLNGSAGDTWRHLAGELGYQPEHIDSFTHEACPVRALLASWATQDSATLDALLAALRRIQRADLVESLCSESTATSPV

[2] = target: T2, Tumor necrosis factor receptor superfamily member 16 (Homo sapiens, UniProt P08138); test: Inhibition of mouse NGF binding to p75 (unknown origin) by SPR method
T2 sequence (P08138 whole entry): T1 sequence (whole entry)

[3] = target: T3, High affinity nerve growth factor receptor (Homo sapiens, UniProt P04629); test: Inhibition of mouse NGF binding to TrkA (unknown origin) by SPR method relative to control
Target sequence in this assay (P04629 33-796 limits assumed): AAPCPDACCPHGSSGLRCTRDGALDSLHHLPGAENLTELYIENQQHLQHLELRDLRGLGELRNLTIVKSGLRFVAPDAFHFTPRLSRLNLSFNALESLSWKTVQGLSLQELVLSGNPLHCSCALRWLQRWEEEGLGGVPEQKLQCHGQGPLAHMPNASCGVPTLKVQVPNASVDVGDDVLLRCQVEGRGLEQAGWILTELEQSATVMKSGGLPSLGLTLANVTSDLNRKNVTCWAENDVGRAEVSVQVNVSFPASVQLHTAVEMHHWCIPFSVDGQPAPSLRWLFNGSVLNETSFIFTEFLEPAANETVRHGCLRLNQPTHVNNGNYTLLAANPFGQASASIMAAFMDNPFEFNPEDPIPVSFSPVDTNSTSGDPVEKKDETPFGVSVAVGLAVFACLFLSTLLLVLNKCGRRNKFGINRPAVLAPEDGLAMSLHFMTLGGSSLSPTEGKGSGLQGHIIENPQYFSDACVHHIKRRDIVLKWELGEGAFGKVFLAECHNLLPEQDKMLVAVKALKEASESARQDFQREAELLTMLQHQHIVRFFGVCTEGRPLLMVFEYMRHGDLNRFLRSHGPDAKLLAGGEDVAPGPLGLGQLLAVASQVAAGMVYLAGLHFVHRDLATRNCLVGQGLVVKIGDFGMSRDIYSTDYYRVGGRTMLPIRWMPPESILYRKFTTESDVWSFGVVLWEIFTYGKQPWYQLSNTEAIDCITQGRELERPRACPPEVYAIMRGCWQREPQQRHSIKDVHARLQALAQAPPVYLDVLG

[4] = target: T3, High affinity nerve growth factor receptor; test: Inhibition of His-tagged recombinant human TrkA using Alexa-Fluor tracer-236 incubated for 60 mins by TR-FRET based Lantha-screen Eu kinase binding assay
Target sequence in this assay (P04629 whole entry): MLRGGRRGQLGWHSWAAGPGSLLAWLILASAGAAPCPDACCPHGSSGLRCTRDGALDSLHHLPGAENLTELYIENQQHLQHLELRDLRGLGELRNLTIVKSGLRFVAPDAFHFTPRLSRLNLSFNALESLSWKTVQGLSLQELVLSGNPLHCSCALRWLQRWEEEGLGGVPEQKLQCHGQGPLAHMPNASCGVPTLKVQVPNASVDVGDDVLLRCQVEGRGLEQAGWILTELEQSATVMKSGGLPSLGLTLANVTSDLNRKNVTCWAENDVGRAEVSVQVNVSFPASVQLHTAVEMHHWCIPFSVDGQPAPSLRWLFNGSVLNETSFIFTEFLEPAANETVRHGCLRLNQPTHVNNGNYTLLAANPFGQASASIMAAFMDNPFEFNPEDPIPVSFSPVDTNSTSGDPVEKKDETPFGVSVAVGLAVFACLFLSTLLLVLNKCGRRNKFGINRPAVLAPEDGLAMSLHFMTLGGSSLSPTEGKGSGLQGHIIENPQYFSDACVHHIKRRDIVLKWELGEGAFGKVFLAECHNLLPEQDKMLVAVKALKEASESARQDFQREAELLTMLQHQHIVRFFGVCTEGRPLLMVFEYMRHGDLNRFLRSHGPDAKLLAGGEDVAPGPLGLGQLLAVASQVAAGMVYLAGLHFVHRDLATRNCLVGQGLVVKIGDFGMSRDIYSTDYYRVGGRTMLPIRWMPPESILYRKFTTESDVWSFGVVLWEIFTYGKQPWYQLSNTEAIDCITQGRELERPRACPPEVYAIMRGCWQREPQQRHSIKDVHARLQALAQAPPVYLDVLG

[5] = target: T3, High affinity nerve growth factor receptor; test: Inhibition of TrkA (unknown origin) by cell based assay
Target sequence in this assay (P04629 whole entry): as above

[6] = target: T4, BDNF/NT-3 growth factors receptor (Homo sapiens, UniProt Q16620); test: Inhibition of N-terminal GST tagged human TrkB cytoplasmic domain (456 to 822 amino acids) pre-incubated for 15 mins before peptide substrate addition for 180 mins by fluorescence based assay
Target sequence in this assay (Q16620 whole entry, the tested form may be a part): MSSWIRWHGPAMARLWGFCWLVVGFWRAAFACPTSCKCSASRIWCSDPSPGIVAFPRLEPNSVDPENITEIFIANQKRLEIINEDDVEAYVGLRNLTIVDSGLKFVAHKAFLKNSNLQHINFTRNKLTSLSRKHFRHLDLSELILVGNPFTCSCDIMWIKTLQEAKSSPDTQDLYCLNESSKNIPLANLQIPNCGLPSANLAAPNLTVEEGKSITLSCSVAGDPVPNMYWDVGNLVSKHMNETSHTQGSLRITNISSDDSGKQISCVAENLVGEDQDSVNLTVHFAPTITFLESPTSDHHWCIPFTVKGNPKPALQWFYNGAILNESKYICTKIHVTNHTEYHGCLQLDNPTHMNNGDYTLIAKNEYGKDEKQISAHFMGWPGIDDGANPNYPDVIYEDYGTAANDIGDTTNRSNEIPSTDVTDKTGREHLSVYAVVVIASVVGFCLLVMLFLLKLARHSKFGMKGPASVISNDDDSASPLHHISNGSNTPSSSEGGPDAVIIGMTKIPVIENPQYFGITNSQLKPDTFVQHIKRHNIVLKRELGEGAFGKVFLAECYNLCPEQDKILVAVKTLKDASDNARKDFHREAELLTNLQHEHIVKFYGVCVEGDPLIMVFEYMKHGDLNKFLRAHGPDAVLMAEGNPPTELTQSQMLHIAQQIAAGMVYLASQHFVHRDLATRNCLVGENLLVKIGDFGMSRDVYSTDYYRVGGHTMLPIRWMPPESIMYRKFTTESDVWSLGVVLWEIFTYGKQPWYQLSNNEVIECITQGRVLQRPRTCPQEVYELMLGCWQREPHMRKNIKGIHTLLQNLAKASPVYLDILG

[7] = target: T3, High affinity nerve growth factor receptor; test: Inhibition of N-terminal GST tagged human TrkA cytoplasmic domain (436 to 790 amino acids) pre-incubated for 15 mins before peptide substrate addition for 180 mins by fluorescence based assay
Target sequence in this assay (P04629 whole entry): as the sequence (P04629 whole entry) above

[8] = target: T5, High affinity nerve growth factor receptor (Rattus norvegicus, UniProt P35739); test: Inhibition of binding of [125I]-NGF to TrkA in rat PC12 cells incubated for 2 hrs by gamma counting method; assay type: cell-based, PC-12
T5 sequence (P35739 whole entry): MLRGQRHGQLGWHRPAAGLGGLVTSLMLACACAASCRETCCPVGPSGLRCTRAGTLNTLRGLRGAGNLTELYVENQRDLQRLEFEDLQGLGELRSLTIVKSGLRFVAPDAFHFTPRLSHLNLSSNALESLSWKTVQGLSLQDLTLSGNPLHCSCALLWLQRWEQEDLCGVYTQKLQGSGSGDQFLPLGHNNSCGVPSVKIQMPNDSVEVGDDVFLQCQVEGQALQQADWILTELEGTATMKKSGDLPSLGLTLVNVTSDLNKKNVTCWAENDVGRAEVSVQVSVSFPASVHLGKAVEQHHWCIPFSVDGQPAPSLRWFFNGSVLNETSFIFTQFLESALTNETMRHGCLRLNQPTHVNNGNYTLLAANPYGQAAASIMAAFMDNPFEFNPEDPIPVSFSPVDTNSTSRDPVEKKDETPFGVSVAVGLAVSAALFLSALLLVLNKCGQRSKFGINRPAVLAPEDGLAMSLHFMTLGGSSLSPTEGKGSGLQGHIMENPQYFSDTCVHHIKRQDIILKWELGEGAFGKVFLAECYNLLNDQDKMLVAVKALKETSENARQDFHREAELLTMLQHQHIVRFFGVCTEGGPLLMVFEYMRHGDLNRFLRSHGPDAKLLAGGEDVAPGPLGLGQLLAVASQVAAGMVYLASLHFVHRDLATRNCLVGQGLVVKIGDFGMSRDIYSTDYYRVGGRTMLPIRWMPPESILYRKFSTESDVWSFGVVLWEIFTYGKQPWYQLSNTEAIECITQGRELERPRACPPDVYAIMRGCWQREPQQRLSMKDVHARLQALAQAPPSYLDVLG

Rattus norvegicus [9] = test: Inhibition of mechanical allodynia ip dosed rat model of L5/L6 nerve ligation injury; assay type: functional
Rattus norvegicus [10] = test: Inhibition of mechanical allodynia in it dosed rat model of L5/L6 nerve ligation injury; assay type: functional
Rattus norvegicus [11] = test: Inhibition of thermal sensitization-induced tactile allodynia in it dosed rat model of L5/L6 nerve ligation injury; assay type: functional
[12] = target: T5, High affinity nerve growth factor receptor; test: Inhibition of NGF-induced TrkA auto-phosphorylation in rat PC12 cells incubated for 15 mins by chemiluminescence based method; assay type: cell-based, PC-12
[13] = target: T4, BDNF/NT-3 growth factors receptor; test: Inhibition of BDNF-stimulated TrkB phosphorylation in human U2OS cells by beta-galactosidase reporter gene based PathHunter profiling assay; assay type: cell-based
Target sequence in this assay (Q16620 whole entry, the tested form may be a part): as the sequence (Q16620 whole entry, the tested form may be a part) above

[14] = target: NT-3 growth factor receptor (Homo sapiens, UniProt Q16288); test: Inhibition of NT3-stimulated TrkC phosphorylation in human U2OS cells by beta-galactosidase reporter gene based PathHunter profiling assay; assay type: cell-based
[15] = target: T3, High affinity nerve growth factor receptor; test: Inhibition of NGF-stimulated TrkA phosphorylation in human U2OS cells by beta-galactosidase reporter gene based PathHunter profiling assay; assay type: cell-based
Target sequence in this assay (P04629 whole entry): as the sequence (P04629 whole entry) above

[16] = target: T4, BDNF/NT-3 growth factors receptor; test: Inhibition of His6 tagged human recombinant TrkB (455 to end amino acids) expressed in Sf21 cells at 10 uM
Target sequence in this assay (Q16620 32-822 limits assumed): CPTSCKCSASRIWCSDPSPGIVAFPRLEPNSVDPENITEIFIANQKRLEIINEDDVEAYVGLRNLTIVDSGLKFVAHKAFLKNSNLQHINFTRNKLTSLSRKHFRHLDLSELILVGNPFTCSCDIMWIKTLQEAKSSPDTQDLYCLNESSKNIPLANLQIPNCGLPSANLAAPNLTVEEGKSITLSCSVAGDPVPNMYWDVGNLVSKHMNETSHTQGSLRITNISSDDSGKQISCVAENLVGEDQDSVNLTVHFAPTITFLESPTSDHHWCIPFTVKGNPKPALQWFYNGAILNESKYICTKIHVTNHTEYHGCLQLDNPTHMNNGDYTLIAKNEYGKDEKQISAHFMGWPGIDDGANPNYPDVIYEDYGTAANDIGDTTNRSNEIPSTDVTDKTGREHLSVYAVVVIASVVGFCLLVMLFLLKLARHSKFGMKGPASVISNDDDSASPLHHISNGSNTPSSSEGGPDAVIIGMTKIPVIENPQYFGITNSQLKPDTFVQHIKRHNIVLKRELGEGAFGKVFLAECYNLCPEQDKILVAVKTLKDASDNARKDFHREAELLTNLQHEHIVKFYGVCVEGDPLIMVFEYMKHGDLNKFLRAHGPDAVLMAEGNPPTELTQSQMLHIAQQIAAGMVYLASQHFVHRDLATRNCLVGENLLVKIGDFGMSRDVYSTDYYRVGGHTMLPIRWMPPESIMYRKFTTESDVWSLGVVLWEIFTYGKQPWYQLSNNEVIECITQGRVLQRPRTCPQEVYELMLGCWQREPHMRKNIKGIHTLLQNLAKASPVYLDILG

P-gp = test: Binding affinity to P-gp (unknown origin) assessed as efflux ratio by cell based assay; assay type: ADME; conditions: human, not told

Sequence of Beta-nerve growth factor (P01139 whole entry, looked up): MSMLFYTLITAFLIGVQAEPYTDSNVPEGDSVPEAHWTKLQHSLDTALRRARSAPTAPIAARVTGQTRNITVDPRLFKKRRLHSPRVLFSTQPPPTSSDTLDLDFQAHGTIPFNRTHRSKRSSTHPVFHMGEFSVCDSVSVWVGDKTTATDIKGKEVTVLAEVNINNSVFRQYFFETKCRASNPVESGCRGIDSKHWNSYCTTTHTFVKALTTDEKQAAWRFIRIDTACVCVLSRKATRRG

## Cc1cc2nc3c(=O)[nH]c(=O)nc-3n(C)c2cc1C=O
Beta-nerve growth factor
  IC50: 33 µM
[1]
  Imax: 37%
[2]
  IC50: 244 µM
[3]
  Imax: 100%

## Cc1c(-c2cnn(C)c2)nn(-c2ccccc2)c1NC(=O)Nc1cc(C(F)(F)F)nn1-c1ccccc1
[4]
  IC50: < 100 nM

## CC(=O)NCc1ncc(NC(=O)c2ccc(C(F)(F)F)c(-c3ccn(C)n3)c2)c(-c2ccccc2)n1
[5]
  IC50: 4 nM

## COCCCc1cc(Cl)c(Cl)cc1NC(=O)Nc1c(C)c(-c2cnn(C)c2)nn1-c1ccccc1
[4]
  IC50: < 100 nM

## COc1ccc(COc2ccc(Cn3c(N)nc4cc(-c5cnn(C)c5)ccc43)cc2OC)cc1
[6]
  IC50: 0.3 nM
[7]
  IC50: 0.3 nM

## O=C1c2cccc3cc([N+](=O)[O-])cc(c23)C(=O)N1NCCO
Beta-nerve growth factor
  IC50: 149 µM
[8]
  IC50: 5.88 µM
Rattus norvegicus [9]
  ED50: 38 mg/kg
[1]
  Imax: 6.2%
Rattus norvegicus [10]
  ED50: 34.6 µg
[2]
  IC50: > 300 µM
Rattus norvegicus [11]
  ED50: 50 µg
[12]
  EC50: 22 µM
[3]
  Imax: 44%

## Cn1c2ccc(NC(=O)c3ccccc3)cc2c(=O)n2nc(C(=O)O)cc12
Beta-nerve growth factor
  IC50: 47 µM
[1]
  Imax: 65%
[2]
  IC50: 110 µM
[3]
  Imax: 100%

## Cn1c2c(N)cc(N)cc2c(=O)n2nc(C(=O)O)c([N+](=O)[O-])c12
[1]
  Imax: 70%

## O=C(O)c1ccc(Nc2cc(N3CCN(C4CCCCC4)CC3)c3noc4c3c2C(=O)c2ccccc2-4)cc1
[13]
  IC50: > 10 µM
[14]
  IC50: > 10 µM
[15]
  IC50: 50 nM

## COCc1ccc2cccc(NC(=O)Nc3c(C)c(-c4cnn(C)c4)nn3-c3ccccc3)c2c1
[4]
  IC50: < 100 nM
[16]
  inhibition: 91%

## Cc1c(-c2cnn(C)c2)nn(-c2ccccc2)c1NC(=O)Nc1sc(C(F)(F)F)nc1-c1ccccc1
[4]
  IC50: < 100 nM
[16]
  inhibition: 97%

## COc1ccc(C(=O)c2cn(C(C)C)c3ncnc(N)c23)cc1NC(=O)Nc1ccc(Cl)cc1Cl [CE-245677]
P-gp
  efflux ratio: 1
